Measurements published in ChEMBL document CHEMBL1147612, “Synthesis, topoisomerase I inhibition and structure-activity relationship study of 2,4,6-trisubstituted pyridine derivatives” (Bioorg Med Chem Lett, 2004).

Columns and labels:
Type in all cases: functional, cell-based
HCT-15 = test: Antitumor cytotoxicity was determined against the HCT-15 (human colon adenocarcinoma) cell line; Range: 0.01 to 0.03
SK-MEL-2 = test: Antitumor cytotoxicity was determined against the SK-MEL-2 (human malignant melanoma) cell line; Range: 0.01 to 0.03
A549 = test: Antitumor cytotoxicity was determined against the A-549(human lung carcinoma) cell line; Range: 0.01 to 0.03
SK-OV-3 = test: Antitumor cytotoxicity was determined against the SK-OV-3 (human ovary adenocarcinoma) cell line; Range: 0.01 to 0.03; details: SK-OV-3, Female gonad

Measured: EC50

c1ccc(-c2cc(-c3ccccn3)nc(-c3ccccn3)c2)nc1
30 nM: all assays above
